Laboratory results as given in US20110172217A1, “RING-FUSED MORPHOLINE DERIVATIVE HAVING PI3K-INHIBITING ACTIVITY” (Shionogi & Co., Ltd., priority 2008, published 2011).

What was measured:
[1] = tested on: Salmonella typhimurium TA98 line, TA100 line; test: Fat Test (mutagenicity in Salmonella typhimurium); type: cell-based; design: key: When the mutagenicity is negative, the compound is shown as (−); When positive, the compound is shown as (+); conditions: TA98 and TA100 lines, non-metabolism-activation and metabolism-activation conditions
Description: 20 μL of Salmonella enterica subsp. typhimurium (Salmonella typhimurium TA98 line, TA100 line) cryopreserved was inoculated to 10 mL of liquid nutrient medium (2.5% Oxoid nutrient broth No. 2) and then precultured at 37° C. for 10 hours with shaking. Regarding TA98 line, after 9 mL of a bacterial suspension was centrifuged (2000×g, 10 minutes) to remove the culture solution, the bacteria was suspended in 9 mL of Micro F buffer solution (K2HPO4: 3.5 g/L, KH2PO4: 1 g/L, (NH4)2SO4: 1 g/L, tri-sodium citric acid dihydrate: 0.25 g/L, MgSO4.7H2O: 0.1 g/L), and then added to 110 mL of Exposure media (Micro F buffer solution containing biotin: 8 μg/mL, histidine: 0.2 μg/mL, glucose: 8 mg/mL). Regarding TA 100 line, 120 mL of Exposure media was added to 3.16 mL of the bacterial suspension to prepare a test bacterial suspension. 12 μL of a solution of a test substance in DMSO (diluted eight times in a common ratio of 2 from the maximum dose of 50 mg/mL); 12 μL of DMSO as a negative control; 50 μg/mL 4-nitroquinoline-1-oxide solution in DMSO for TA98 line or 0.25 μg/mL 2-(2-furyl)-3-(5-nitro-2-furyl)acrylamide solution in DMSO as a positive control for TA 100 line in the case of a non-metabolism-activation condition; 12 μL of 40 μg/mL 2-aminoanthracene solution in DMSO for TA98 line or 20 μg/mL of 2-aminoanthracene solution in DMSO for TA100 line in the case of a metabolism-activation condition; were each mixed with 588 μL of the test bacterial suspension (in the case of a metabolism activation condition, a mixed solution of 498 μL of the test bacterial suspension and 90 μL S9 mix) and then cultured at 37° C. at 90 minutes with shaking. 460 μL of the bacterial suspension to which a test substance was exposed was mixed with 2300 μL of Indicator media (a Micro F buffer solution containing 8 μg/mL biotin, 0.2 μg/mL histidine, 8 mg/mL glucose, and 37.5 μg/mL bromocresol purple). […] Thus, in 48 wells per dose, the number of the bacteria-proliferation wells in which the color changed to yellow was counted, compared with a group of negative controls, and then evaluated. […]

[2] = Solubility test in artificial intestinal juice pH 6.8; type: physicochemical; conditions: kinetic from dmso stock, artificial intestinal juice pH 6.8, 1% DMSO, 25° C.
Description: The solubility of a compound was determined under a condition in which 1% DMSO was added. 10 mmol/L compound solution was prepared using DMSO, and then 6 μL of the compound solution was added to 594 μL of artificial intestinal juice in pH 6.8 (to 250 mL of 0.2 mol/L potassium dihydrogen phosphate reagent solution was added 118 mL of 0.2 mol/L NaOH reagent solution and water to provide a final volume of 1000 mL). After standing at 25° C. for 16 hours, the mixed solution was filtered with suction. The filtrate was diluted twice with methanol/water (1/1), and then a concentration in the filtration was measured with HPLC or LC/MS/MS by the absolute calibration method.

CYP2C19 = molecular target: T1, CYP2C19 (Homo sapiens, UniProt P33261); test: CYP inhibition test, 4′-hydroxylation of mephenyloin; type: in vitro ADME; conditions: pooled human liver microsome; one of 5 kinds
T1 construct: enzyme: pooled human liver microsome 0.2 mg protein/mL; from tissue; host or cells: pooled human liver microsomes
Description: (§1) O-de-ethylation of 7-ethoxyresorufin (CYP1A2), methyl-hydroxylation of tolbutamide (CYP2C9), 4′-hydroxylation of mephenyloin (CYP2C19), O-demethylation of dextromethorphan (CYP2D6), and hydroxylation of terfenadine (CYP3A4), which are typical substrate for metabolic reactions of human main CYP5 molecular species (CYP1A2, 2C9, 2C19, 2D6, and 3A4), were adopted as indexes.
(§2) The reaction conditions are as follows: substrate: 0.5 μmol/L of ethoxyresorufin (CYP1A2), 100 μmol/L of tolbutamide (CYP2C9), 50 μmol/L of S-mephenyloin (CYP2C19), […] of dextromethorphan (CYP2D6), and 1 μmol/L of terfenadine (CYP3A4); reaction time; 15 minutes; reaction temperature: 37° C.; enzyme: pooled human liver microsome 0.2 mg protein/mL; test drug concentration: 1, 5, 10, and 20 μmol/L (4 points).
(§3) In a 96-well plate, as a reaction solution, five kinds of substrates, a human liver microsome, and a test drug were added to 50 mmol/L Hepes buffer solution in the aforementioned ratio. A coenzyme NADPH was added to start a metabolic reaction, which is an index. After reacting at 37° C. for 15 minutes, a solution of methanol/acetonitrile (1/1 (v/v)) was added to quench the reaction. After centrifugation at 3000 rpm for 15 minutes, resorufin (CYP1A2 metabolite) in the supernatant was quantitated with a fluorescence multilabel counter, and hydroxylated tolbutamide (CYP2C9 metabolite), 4′-hydroxylated mephenyloin (CYP2C19 metabolite), […], terfenadine in alcohol form (CYP3A4 metabolite) were quantitated with LC/MS/MS.
(§4) The case wherein only DMSO (a solvent which dissolved a drug) was added to a reaction system was defined as a control (100%). When a test drug solution was added, the remaining activity (%) at each concentration was calculated, and then IC50 was calculated with a concentration and an inhibition ratio by an inverse estimation using a logistic model.

CYP2D6 = molecular target: T2, CYP2D6 (Homo sapiens, UniProt P10635); test: CYP inhibition test, O-demethylation of dextromethorphan; type: in vitro ADME; conditions: pooled human liver microsome; one of 5 kinds
T2 construct: enzyme: pooled human liver microsome 0.2 mg protein/mL; from tissue; host or cells: pooled human liver microsomes
Description: as §1, §2, §3, §4

T2 sequence (P10635 whole entry): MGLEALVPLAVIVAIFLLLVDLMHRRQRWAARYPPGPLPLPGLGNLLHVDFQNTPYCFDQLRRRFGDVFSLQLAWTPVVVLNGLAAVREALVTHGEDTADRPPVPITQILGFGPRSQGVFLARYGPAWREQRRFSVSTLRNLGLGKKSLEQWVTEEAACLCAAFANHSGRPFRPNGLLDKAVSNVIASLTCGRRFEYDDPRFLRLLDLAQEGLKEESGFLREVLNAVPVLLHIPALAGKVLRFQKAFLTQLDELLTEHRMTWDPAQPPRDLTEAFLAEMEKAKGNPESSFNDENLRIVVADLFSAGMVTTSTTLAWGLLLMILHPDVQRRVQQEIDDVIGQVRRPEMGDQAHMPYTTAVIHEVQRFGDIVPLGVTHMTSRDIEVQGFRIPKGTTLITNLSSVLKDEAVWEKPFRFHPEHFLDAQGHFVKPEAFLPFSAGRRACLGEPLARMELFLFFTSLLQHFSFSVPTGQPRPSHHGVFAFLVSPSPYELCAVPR
T1 sequence (P33261 whole entry): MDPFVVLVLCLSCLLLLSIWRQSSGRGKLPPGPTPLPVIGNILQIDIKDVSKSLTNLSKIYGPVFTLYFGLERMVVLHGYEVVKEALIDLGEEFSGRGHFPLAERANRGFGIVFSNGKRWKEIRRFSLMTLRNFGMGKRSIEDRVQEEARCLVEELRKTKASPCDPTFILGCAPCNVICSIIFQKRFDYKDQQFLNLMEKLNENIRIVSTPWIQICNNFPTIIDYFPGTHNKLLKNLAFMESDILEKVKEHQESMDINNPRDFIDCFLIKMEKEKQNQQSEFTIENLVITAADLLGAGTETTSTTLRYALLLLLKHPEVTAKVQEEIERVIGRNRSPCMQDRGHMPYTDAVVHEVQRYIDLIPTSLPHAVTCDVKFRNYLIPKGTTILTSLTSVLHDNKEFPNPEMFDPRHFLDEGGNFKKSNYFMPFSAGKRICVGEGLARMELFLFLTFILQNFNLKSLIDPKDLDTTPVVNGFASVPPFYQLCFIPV

Row | SMILES | mutagenicity [1] | solubility at 16 h [2] [µM] | IC50 (CYP2C19) [µM] | IC50 (CYP2D6) [µM]
1 | O=C(O)c1ccccc1Nc1ccc2c(n1)N(C(=O)Nc1ccccc1)CCO2 [Compound I-145] | (−) |  |  | 
2 | O=C(O)COc1cccc(Nc2ccc3c(n2)N(C(=O)Nc2ccccc2)CCO3)c1 [Compound I-240] |  | > 50 | > 20 | > 20
